Measured values as given in US5821262A, “Hydroxamic acid derivatives as inhibitors of cytokine production” (British Biotech Pharmaceuticals Limited, priority 1993, dated 1998).

Legend:
[1] = system: TNF; assay: inhibition of endotoxin (LPS) induced TNF production in vivo, serum TNF in anaesthetised rats; design: species or system male CD rats; details: rat, 10 mg/kg intravenous 15 minutes prior to LPS 50 μg/kg, infusion maintained 2 hours
Method: The compound of Example 1 was assessed for its ability to inhibit release of endotoxin induced TNF production in vivo.
Male Male CD rats (Charles River, UK) weighing between 300 g-400 g were anaesthetised with an intra-peritoneal injection of a mixture of 62.5 mg·kg^-1 thiopental and 22.5 mg·kg^-1 sodium pentobarbitone (Thiopental, Sigma Chemical Co., UK; Sodium pentobarbitone (Sagatal), May and Baker., UK). The trachea was exposed and cannulated to allow spontaneous respiration through a patent airway. The left jugular vein was exposed and cannulated for the administration of LPS. The right femoral artery was exposed and cannulated for withdrawal of blood samples.
Blood samples (1 ml) were removed just prior to bolus administration of either LPS (E. coli serotype 0111:b4, Difco Laboratories, USA) or saline (NaCL 0.9% w/v) and at intervals of 1 hour and 2 hours after LPS. Removed blood was replaced with equal amounts of saline.
The peak of TNF release was at the 1 hour timepoint. […] levels were expressed in units/ml where 1 unit is the equivalent of 1 pg of mouse TNFα.
Rat serum TNF levels were measured using a mouse TNFα reference standard. The commercial ELISA kits were from Genzyme.
The compound of example 1 was administered intravenously to aneasthetised rats at a dose of 10 mg·kg^-1, 15 minutes prior to LPS administration. […]

[2] = system: TNFα release from human monocytic cell line U937; assay: inhibition of PMA-stimulated TNFα release from U937 cells (ELISA); type: cell-based; details: U-937, PMA 50 nM, 18 hours, 37° C., read-out: IC50, concentration which inhibits the release of TNFα by 50% relative to control culture
Method: The ability of example compounds of the invention to inhibit the release of TNF was investigated. The assay is based on the ability of phorbol myristate acetate (PMA) to stimulate the release of TNF a from a human monocytic cell line, U937.
U937 cells cultured in RPMI 1640 medium+5% foetal calf serum are centifuged at 1000×g for 5 minutes and then resuspended in medium at 2×10^6 /ml. 1 ml of cell suspension is aliquoted into individual wells of 24-well plates. Test compounds are dissolved in dimethyl sulphoxide (DMSO) at a stock concentration of 100 mM, then diluted to 50× the final required concentration with RPMI 1640 medium. 20 μl of the diluted compounds are added to U937 cells in duplicate wells. TNF a release is stimulated by addition of PMA to the cells at a final concentration of 50 nM. Appropriate control cultures are set up in duplicate. The plates are incubated for 18 hours at 37° C., 5% CO2, then centrifuged at 1000×g for 5 minutes. A specific ELISA for TNFα obtained from British Bio-technology Products Limited, Abingdon, England is used to measure TNFα levels in the culture supernatants
The average concentration of test compound which inhibits the release of TNF a by 50% relative to the control culture was assessed.

[3] = target: T1, collagenase (Homo sapiens, UniProt P03956); assay: collagenase inhibition, 14C collagen, procedure of Cawston and Barrett; type: biochemical; details: 37°, 16 hours, pH 7.5
T1 sequence (P03956 100-469): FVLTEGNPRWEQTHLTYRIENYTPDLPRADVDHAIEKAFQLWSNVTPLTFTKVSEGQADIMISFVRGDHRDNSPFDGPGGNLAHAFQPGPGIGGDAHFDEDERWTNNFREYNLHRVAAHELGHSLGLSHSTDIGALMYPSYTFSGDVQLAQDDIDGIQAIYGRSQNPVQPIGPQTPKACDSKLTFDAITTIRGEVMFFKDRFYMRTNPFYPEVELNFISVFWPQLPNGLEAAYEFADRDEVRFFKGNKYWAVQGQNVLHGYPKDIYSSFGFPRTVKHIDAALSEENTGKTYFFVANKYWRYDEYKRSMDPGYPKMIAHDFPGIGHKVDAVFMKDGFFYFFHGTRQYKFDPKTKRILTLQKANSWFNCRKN
Excerpt: The collagen was acetylated ^14 C collagen prepared by the method of Cawston and Murphy, (Methods in Enzymology, 80, 711, 1981), hereby incorporated by reference. The samples were centrifuged to sediment undigested collagen, and an aliquot of the radioactive supernatant removed for assay on a scintillation counter as a measure of hydrolysis.

[4] = target: stromelysin (Homo sapiens, UniProt P08254); assay: stromelysin inhibition, 14C acetylated casein, procedure of Cawston et al; type: biochemical; details: 37°, 16 hours, pH 7.5
Method: The potency of compounds of Examples 1 to 6 to act as inhibitors of stromelysin was determined by the procedure of Cawston et al, (Biochem. J., 195, 159-165, 1981), hereby incorporated by reference, whereby a 1 mM solution of the compound being tested, or a dilution thereof, was incubated at 37° for 16 hours with stromelysin and ^14 C acetylate casein (buffered with 25 mM Hepes, pH 7.5 containing 5 mM CaCl2, 0.05% Brij 35 and 0.02% NaN3). The casein was acetylated ^14 C casein prepared by the method of Cawston et al (ibid).

Chain of stromelysin (P08254 100-477): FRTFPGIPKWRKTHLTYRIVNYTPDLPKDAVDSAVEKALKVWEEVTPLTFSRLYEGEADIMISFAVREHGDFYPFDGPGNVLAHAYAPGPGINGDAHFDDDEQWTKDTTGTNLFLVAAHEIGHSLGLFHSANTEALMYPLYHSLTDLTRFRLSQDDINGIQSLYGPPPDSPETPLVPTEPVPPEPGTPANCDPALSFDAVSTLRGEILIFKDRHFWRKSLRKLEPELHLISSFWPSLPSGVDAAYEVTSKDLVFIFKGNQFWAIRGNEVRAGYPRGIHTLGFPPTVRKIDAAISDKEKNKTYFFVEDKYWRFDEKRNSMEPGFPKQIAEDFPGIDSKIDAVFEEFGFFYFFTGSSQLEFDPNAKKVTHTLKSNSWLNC

IC50 [2] [nM]	IC50 [3] [nM]	IC50 [4] [nM]	Compound	reduction of LPS-induced release of TNF, 1 hour timepoint ([1]; 1 hour after LPS)	reduction of LPS-induced release of TNF, 2 hour timepoint ([1]; 2 hours after LPS)
< 50000	–	–	CNC(=O)[C@H](CCCCNC(C)=O)NC(=O)[C@H](CC(C)C)[C@H](CSc1ccc(O)cc1)C(=O)NO [Example 1, N^2-[4-(N-Hydroxyamino)-3S-(4-hydroxyphenylthiomethyl)-2R-isobutylsuccinyl]-N^6-acetyl-L-lysine-N^1-methylamide]	more than 50%	more than 50%
< 50000	15	15	CNC(=O)[C@H](CCCCNC(=O)OC(C)(C)C)NC(=O)[C@H](CC(C)C)[C@H](CSc1ccc(O)cc1)C(=O)NO [Example 2, N^2-[4-(N-Hydroxyamino)-3S-(4-hydroxyphenylthiomethyl)-2R-isobutylsuccinyl]-N^6-tert-butyloxycarbonyl-L-lysine-N^1-methylamide]	–	–
< 50000	30	50	CNC(=O)[C@H](CCCCN(CSc1ccc(O)cc1)C(=O)OC(C)(C)C)NC(=O)[C@H](CC(C)C)[C@H](CSc1ccc(O)cc1)C(=O)NO [Example 3, N^2-[4-(N-Hydroxyamino)-3S-(4-hydroxyphenylthiomethyl)-2R-isobutylsuccinyl]-N^6-tert-butyloxycarbonyl-N^6-(4-hydroxyphenylthiomethyl)-L-lysine-N^1-methylamide]	–	–
< 50000	–	20	CNC(=O)[C@H](CCCCNC(=O)OC(C)(C)C)NC(=O)[C@H](CC(C)C)[C@H](CSc1cccs1)C(=O)NO [Example 4, N^2-[4-(N-Hydroxyamino)-3S-(2-thienythiomethyl)-2R-isobutylsuccinyl]-N^6-tert-butyloxycarbonyl-L-lysine-N^1-methylamide]	–	–
–	5	40	CNC(=O)[C@@H](NC(=O)[C@H](CC(C)C)[C@H](CSc1ccc(O)cc1)C(=O)NO)[C@@H](C)OC(C)(C)C [Example 5, N^2-[4-(N-Hydroxyamino)-3S-(4-hydroxyphenylthiomethyl)-2R-isobutylsuccinyl]-O-tert-butyl-L-threonine-N^1-methylamide]	–	–
< 50000	6	70	CNC(=O)CC[C@H](NC(=O)[C@H](CC(C)C)[C@H](CSc1ccc(O)cc1)C(=O)NO)C(=O)NC [Example 6, N^2-[4-(N-Hydroxyamino)-3S-(4-hydroxyphenylthiomethyl)-2R-isobutylsuccinyl]-L-glutamine-N^1,N^5-dimethylamide]	–	–
